Holding throughout (type): in vivo
In assay [1] the test system is Myzus persicae. The assay can be described thus: B2: Myzus persicae (green peach aphid), mixed population, feeding/residual contact activity, preventive. The conditions noted are these: foliar, 144 h, sunflower leaf discs sprayed with test solutions of 200 ppm, aphid population of mixed ages, 6 days incubation, read-out: control of Myzus persicae (mortality). How it is done:
B2: Myzus persicae (green peach aphid) (mixed population, feeding/residual contact activity, preventive)
Sunflower leaf discs are placed on agar in a 24-well microtiter plate and sprayed with test solutions of 200 ppm. After drying, the leaf discs are infested with an aphid population of mixed ages. After an incubation period of 6 days, samples are checked for mortality and special effects (e.g. phytotoxicity).

For assay [2], the system named is Myzus persicae. The assay can be described thus: B3: Myzus persicae (green peach aphid), mixed population, systemic/feeding activity, curative. The conditions noted are these: 144 h, roots of infested pea seedlings placed in test solutions of 24 ppm, 6 days after introduction, read-out: control of Myzus persicae (mortality). The text has this:
B3: Myzus persicae (green peach aphid) (mixed population, systemic/feeding activity, curative)
Roots of pea seedlings, infested with an aphid population of mixed ages, are placed directly in the test solutions of 24 ppm. 6 days after introduction, samples are checked for mortality and special effects on the plant.

Assay [3] deals with Myzus persicae. The assay can be described thus: B1: Myzus persicae (green peach aphid), mixed population, sachet test. The conditions noted are these: 144 h, 12.5 ppm test compound in 30% sucrose solution, parafilm sachet, 6 days after infestation, read-out: control of Myzus persicae (mortality, feeding activity). How it is done:
B1: Myzus persicae (green peach aphid) (mixed population, sachet test)
Each well of a 24-well microtiter plate is filled with 0.6 ml 30% sucrose solution, containing 12.5 ppm of the test compounds. For producing the sachets, the wells are covered with streched parafilm and infested with a mixed population of Myzus persicae. 6 days after the infestation, samples are checked for mortality (feeding activity).

Bounds are passed on as bounds.

A word on the mortality: it is the percentage killed. For the compound `CNC1=NS(=O)(=O)c2c(F)cccc21` [Compound P1.15, (7-Fluoro-1,1-dioxo-1H-1λ^6-benzo[d]isothiazol-3-yl)-methyl-amine], in assay [1], the mortality at 200 ppm is at least 80%. The mortality at 24 ppm in assay [2] is at least 80%.

Regarding `CC(C)N1C(=N)c2cccc(Br)c2S1(=O)=O` [Compound P2.1, 7-bromo-2-isopropyl-1,1-dioxo-1,2-dihydro-1λ^6-benzo[d]isothiazol-3-ylideneamine], in assay [3], the mortality at 12.5 ppm was at least 80%.

For the compound `NC1=NS(=O)(=O)c2c(Br)cccc21` [Compound P1.1, 7-bromo-1,1-dioxo-1H-1λ^6-benzo[d]isothiazol-3-ylamine], the mortality at 200 ppm in assay [1] was at least 80%. Further, the mortality at 24 ppm in assay [2] is at least 80%.

For the origin of these results see US8563744B2, “3-amino-benzo [D] isothiazole dioxide derivatives and their use as pesticides” (Syngenta Crop Protection, LLC, priority 2008, dated 2013).
